Experimental data from patent US20100035297A1, “METHODS AND COMPOSITIONS FOR VASCULOGENIC POTENTIAL DETERMINATION” (INDIANA UNIVERSITY RESEARCH AND TECHNOLOGY CORPORATION, priority 2008, published 2010).

Tests used:
Format in all cases: cell-based, human
[1] = system: vascular network formation by EC on ASC monolayer; test: Vascular network formation (VNF) in EC-ASC co-culture; details: 6 days
Protocol: Medium with the same supplements were exchange at day 3. At day 6, wells with the co-cultures were fixed with methanol, stained for human CD31 antigen; 5-9 pictures/well at 4× were taken under fluorescent microscope and were analyzed for total tube length and branch points.
Co-culture of EC and ASC: ASCs were plated on culture plastic at a density of 60×10^3 cells/cm^2 in EBM-2/5% FBS media. In most experiments, ASCs were allowed to attach to the plates for three hours and then ECs from the indicated sources were plated on the top of ASC monolayer at densities ranging from 625 to 10,000 cells/cm^2. Cells were cultured in EBM-2/5% FBS for six days with media change at day 3. In a separate set of experiments, ASCs at 60×10^3 cells/cm^2 and CBD-ECs at 5×10^3 cells/cm^2 were premixed in EBM-2/5% FBS prior to plating.
In experiments assessing the role of various factors on EC-ASC interactions, co-cultures were incubated for 6 days in EBM-2/5% FBS media supplemented with: (1) neutralizing IgGs to: VEGF (RnD Systems, 2 μg/ml), HGF (RnD Systems, 2 μg/ml) or corresponding control mouse and goat IgGs (RnD Systems); (2) 10 μM GM6001 (Millipore, Billerica, Mass.), an inhibitor of MMP activity with a wide range of activity; (3) 50 μM AG1296 (Alexis, San Diego, Calif.), an inhibitor of PDGF receptor β activity; (4) and DMSO, which was used to dilute GM6001 and AG1296, as a negative control. Test cultures were exposed to the varying media conditions for six days.
(§1) Co-culture of ECs on ASC, NHDF and smooth muscle cell monolayers: Either ASCs, NHDFs, CASMCs, or AoSMCs were plated at a density of 60×10^3 cells/cm^2 in EBM-2/5% FBS media, three hours prior to overlaying them with 5×10^3 cells/cm^2 of CBD-ECs as previously described. The mixed cultures were incubated for six days with a routine media change at day 3. In experiments evaluating the effect of ASC conditioned media (ASC-CM) or added growth factors on vascular network formation, cells were cultured in EBM-2/5% FBS media that was either premixed with ASC-CM at a 1:1 ratio or supplemented with VEGF or HGF (10 ng/ml) as single growth factor controls. To generate ASC-CM, ASCs were grown to confluence in EGM-2mv in T75 flasks, followed by media replacement with EBM-2/5% FBS. After one day, 10 ml fresh EBM-2/5% FBS media was applied and removed after 72 hours conditioning. ASC-CM was collected, centrifuged at 300 g for five minutes, and supernatants frozen at 80° C. Cell number at the time of media collection was determined using hemocytometer.

EC+CASMC co-culture = test: VNF by ECs co-cultured on CASMC monolayer; details: growth factor 10 ng/ml, 6 days; control 0.37±0.13
Protocol: as §1

EC+fibroblast co-culture = test: VNF by ECs co-cultured on fibroblast (NHDF) monolayer; details: growth factor 10 ng/ml, 6 days; control 0.54±0.1
Protocol: as §1

ASCs = test: hASC mitogenic response to individual growth factors; details: factor added to basal medium, 10 pg to 10 ng, 4 days
Protocol: Evaluation of hASC Mitogenic Response to Individual Growth Factors: Freshly isolated ASCs were adhered on cell culture plastic for 2 days before harvesting attached cells with 0.05% trypsin/EDTA. Cells were seeded at 3×10^3 cells/cm^2 in 12-well plates and allowed to attach overnight in EBM-2/5% FBS medium, which was then replaced with EBM-2/5% FBS alone (control) or EBM-2/5% FBS supplemented with basic fibroblast growth factor (bFGF), epidermal growth factor (EGF), or platelet-derived growth factor (PDGF)-BB individually at final concentrations of 10 pg, 100 pg, 1 ng, or 10 ng each or the mixture of all of these, each at the specified concentration. Cells were cultured for 4 days, with a medium change after 48 hours, and then detached using 0.05% trypsin/EDTA, and viable cells were counted using a hemacytometer and trypan blue. Proliferation data are presented as the ratio of cells per well supplemented with growth factor to cells per well in control media.

Molecule | total tube length (EC+CASMC co-culture) [mm/mm^2] | total tube length (EC+fibroblast co-culture) [mm/mm^2] | effect on ASC proliferation (ASCs) | further results
VEGF | 0.9±0.18 | 3.2±0.4 | – | increase of total tube length ([1]; EC-ASC co-culture, growth factor 10 ng/ml, vs control media): 76%
EGF: epidermal growth factor (NSDSECPLSHDGYCLHDGVCMYIEALDKYACNCVVGYIGERCQYRDLKWWELR; UniProt P01133 971-1023, looked up) | – | – | strong mitogenic effects | –
COc1cc2ncc(-c3ccccc3)nc2cc1OC [AG1296] | – | – | – | total tube length ([1]; 50 μM, DMSO control 5.29±0.31): 1.07±0.14 mm/mm^2; degree of network branching ([1]; 50 μM, DMSO control 5.88±0.67): 0.26±0.06 branches/mm^2
bFGF: basic fibroblast growth factor | – | – | strong mitogenic effects | –
HGF: hepatocyte growth factor, single growth factor supplement | 0.74±0.21 | 1.0±0.02 | – | –
CNC(=O)[C@H](Cc1c[nH]c2ccccc12)NC(=O)[C@@H](CC(=O)NO)CC(C)C [GM6001] | – | – | – | total tubes length ([1]; 10 μM, DMSO control 4.24±0.31): 2.59±0.05 mm/mm^2; degree of network branching ([1]; 10 μM, DMSO control 5.86±0.79): 2.45±0.17 per mm^2
